The conditions of data set [1]: human, in vivo; cited from earlier work.
Data set [2] is classed as physicochemical. As to the method: The phase solubility binding curve for Salmeterol xinafoate and budesonide was determined as described herein, and the approximate equilibrium binding constant (Ki) of each with CAPTISOL was determined. […] The molar ratio of CAPTISOL to Salmeterol xinafoate at saturated solubility was about 3.2 under the test conditions used. Their may be a reduction in the amount of budesonide solubilized by CAPTISOL in the presence of Salmeterol xinafoate; however, clear aqueous liquid solution formulations comprising therapeutically effective amounts of budesonide and Salmeterol xinafoate were prepared.

The nature of data set [3]: Viscosity of SAE-CD solutions (cone and plate viscometer). It counts as physicochemical. The conditions noted are these: 25 C. As to the method:
The performance of an inhalable solution of the invention in a nebulizer may depend upon the viscosity of the solution in its reservoir, the nebulization solution. Viscosity of the inhalable composition can have an impact on percentage of nebulization composition emitted from a nebulizer, output rate of nebulized corticosteroid and droplet size distribution.
The viscosity of aqueous solutions containing SAE-CD were measured using a cone and plate viscometer.
A Brookfield Programmable DV-III+ Rheometer, CPE-40 cone and CPE 40Y plate (Brookfield Engineering Laboratories, Middleboro, Mass.) was used to make measurements on 0.5 ml samples at 1, 2, 3, 5 and 10 rpm. Samples were sheered for approximately 5 revolutions prior to each measurement. This allowed accurate rheological characterization of the samples. The temperature of all samples was equilibrated to 25±1 degree centigrade using a double wall viscometer cone supplied with water from an electronically controlled thermostatic circulating water bath (Model, 8001, Fisher Scientific, Pittsburgh, Pa.). The viscometer was calibrated using 5 and 50 centipoise using silicon oil calibration standards. Viscosity measurements were made at 5 or more rotation speeds to look for sheer thinning behavior (viscosities that decrease as the rate of sheer increases). Higher rotation speeds result in increased rates of sheer.

The nature of data set [4]: Density of CAPTISOL solutions (pycnometer). Type of data set: physicochemical. The conditions noted are these: 25° C. As to the method: The concentration of SAE-CD in solution can be expressed on a weight to weight or weight to volume basis; however, these two units are interconvertible. When a known weight of cyclodextrin is dissolved in a known weight of water, the % w/w cyclodextrin concentration is determined by dividing the cyclodextrin weight in grams by the total weight (cyclodextrin+water weight) in like units and multiplying by 100. When a known weight of cyclodextrin is dissolved to a known total volume, the % w/v cyclodextrin concentration is determined by dividing the cyclodextrin weight in grams by the total volume in milliliters and multiplying by 100. The correlation between the two cyclodextrin concentration percentages was experimentally determined by preparing various % w/w cyclodextrin solutions and measuring the density of each with a pycnometer at 25° C.

For a further data set, the system named is red blood cells. The conditions noted are these: concentrations typically used to solubilize pharmaceutical formulations; cited from earlier work.

For `CCNC(=O)[C@@H]1CCCN1C(=O)[C@H](CCCNC(=N)N)NC(=O)[C@H](CC(C)C)NC(=O)[C@@H](CC(C)C)NC(=O)[C@H](Cc1ccc(O)cc1)NC(=O)[C@H](CO)NC(=O)[C@H](Cc1c[nH]c2ccccc12)NC(=O)[C@H](Cc1c[nH]cn1)NC(=O)[C@@H]1CCC(=O)N1` [leuprolide acetate], in data set [1], the mean bioavailability is recorded as 6.6%.
As to `CCCC1O[C@@H]2C[C@H]3[C@@H]4CCC5=CC(=O)C=C[C@]5(C)[C@H]4[C@@H](O)C[C@]3(C)[C@]2(C(=O)CO)O1` (stereo partly drawn) [Budesonide, (R,S)-11β,16α,17,21-tetrahydroxypregna-1,4-diene-3,20-dione cyclic 16,17-acetal with butyraldehyde], the “approximate equilibrium binding constant (Ki) with CAPTISOL” value in data set [2] is given as ~600.
As to “Sulfobutyl Ether-β-Cyclodextrin [Captisol]”, the Viscosity in data set [3] (Captisol 8.5 % w/w) stood at 1.75 Cp; in data set [3] (Captisol 29.8 % w/w) it was 5.91 Cp; in data set [3] (Captisol 39.7 % w/w), 17.0 Cp; in data set [3] (Captisol 49.4 % w/w), 51.9 Cp; in data set [3] (Captisol 59.4 % w/w) it was 527.0 Cp; in data set [3] (Captisol […] w/w), 2.78 Cp. Further, the Density in data set [4] (Captisol 8.5 % w/w) was 1.041 g/mL; in data set [4] (Captisol 29.8 % w/w) it was 1.149 g/mL; in data set [4] (Captisol 39.7 % w/w), 1.202 g/mL; in data set [4] (Captisol 49.4 % w/w), 1.259 g/mL; in data set [4] (Captisol 59.4 % w/w) it was 1.320 g/mL; in data set [4] (Captisol […] w/w), 1.095 g/mL. In addition, in the data set on red blood cells, the hemolytic behavior result is listed as “essentially no hemolytic behavior”.
`OCc1cc(C(O)CNCCCCCCOCCCCc2ccccc2)ccc1O` (centres unmarked) [Salmeterol xinafoate]: in data set [2], the “approximate equilibrium binding constant (Ki) with CAPTISOL” value is reported as “approximately 3,500” and the “molar ratio of CAPTISOL to drug at saturated solubility” value is on record as “about 3.2”.

(Values after patent US20070202054A1, “Inhalant Formulation Containing Sulfoalkyl Ether Cyclodextrin and Corticosteroid” (priority 2003, published 2007).)
